Drawing on ChEMBL document CHEMBL2429761, “Discovery of ML314, a Brain Penetrant Non-Peptidic β-Arrestin Biased Agonist of the Neurotensin NTR1 Receptor” (ACS Med Chem Lett, 2013), this text covers EC50, IC50 and Emax for 42 compounds.

Some results are limits rather than exact numbers.

For assay [1], the target named is G-protein coupled receptor 35 (Homo sapiens, UniProt Q9HC97). Nature of the assay: Agonist activity at GPR35 (unknown origin) expressed in human U2OS cells coexpressing beta-arrestin by GFP reporter gene assay. The assay is classed as cell-based.
For assay [2], the target named is Neurotensin receptor type 2 (Homo sapiens, UniProt O95665). Nature of the assay: Agonist activity at NTR2 (unknown origin) expressed in human U2OS cells coexpressing beta-arrestin by GFP reporter gene assay. In kind it is cell-based.
Assay [3] addresses T1, Neurotensin receptor type 1 (Homo sapiens, UniProt P30989). Description: Agonist activity at NTR1 (unknown origin) expressed in human U2OS cells coexpressing beta-arrestin by GFP reporter gene assay. In kind it is cell-based. On the technique in general: Reporter assays use an easily measured gene product as a stand-in for the process of interest.
The target in assay [4] is T1, Neurotensin receptor type 1. Description: Antagonist activity at NTR1 (unknown origin) expressed in human U2OS cells coexpressing beta-arrestin assessed as inhibition of ML314-induced effect by GFP reporter gene assay.
Assay [5] has the same target.
Description: Displacement of [125I]-neurotensin from NTR1 in HUVEC after 1 hr by gamma counting analysis
For assay [6] the target is unchanged. Description: Agonist activity at NTR1 (unknown origin) expressed in CHO cells assessed as stimulation of calcium flux relative to neurotensin (8 to 13). The assay is classed as functional, cell-based. (In general: Calcium flux is commonly read through the fluorescence of an indicator in the cells.)
The target is the same in assay [7]. Description: Agonist activity at NTR1 (unknown origin) expressed in CHOK1 cells by beta-arrestin assay. In kind it is cell-based, CHO-K1.

T1 sequence (P30989 whole entry): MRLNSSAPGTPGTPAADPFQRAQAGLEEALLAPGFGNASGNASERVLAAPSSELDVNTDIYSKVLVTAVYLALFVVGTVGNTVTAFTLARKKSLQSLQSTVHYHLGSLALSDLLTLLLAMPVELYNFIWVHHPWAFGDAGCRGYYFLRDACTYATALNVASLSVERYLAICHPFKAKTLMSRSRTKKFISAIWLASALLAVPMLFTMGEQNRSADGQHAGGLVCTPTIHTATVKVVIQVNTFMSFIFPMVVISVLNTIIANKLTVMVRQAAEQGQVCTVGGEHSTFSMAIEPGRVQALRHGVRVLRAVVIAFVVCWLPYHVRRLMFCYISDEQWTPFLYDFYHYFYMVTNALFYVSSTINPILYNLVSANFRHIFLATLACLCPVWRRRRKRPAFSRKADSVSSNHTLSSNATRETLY
Sequence of Neurotensin receptor type 2 (O95665 whole entry): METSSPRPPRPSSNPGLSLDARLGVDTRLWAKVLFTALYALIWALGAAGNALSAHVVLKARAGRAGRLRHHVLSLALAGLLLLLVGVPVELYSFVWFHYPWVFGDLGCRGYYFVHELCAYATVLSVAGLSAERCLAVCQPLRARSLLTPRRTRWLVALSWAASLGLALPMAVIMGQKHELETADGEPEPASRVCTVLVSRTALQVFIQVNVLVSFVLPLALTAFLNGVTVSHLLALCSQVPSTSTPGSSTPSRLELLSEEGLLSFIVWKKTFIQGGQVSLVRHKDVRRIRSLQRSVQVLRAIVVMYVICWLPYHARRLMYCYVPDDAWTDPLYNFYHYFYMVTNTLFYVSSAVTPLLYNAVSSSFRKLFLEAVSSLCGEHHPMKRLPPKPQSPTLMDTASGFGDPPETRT
Sequence of G-protein coupled receptor 35 (Q9HC97 whole entry): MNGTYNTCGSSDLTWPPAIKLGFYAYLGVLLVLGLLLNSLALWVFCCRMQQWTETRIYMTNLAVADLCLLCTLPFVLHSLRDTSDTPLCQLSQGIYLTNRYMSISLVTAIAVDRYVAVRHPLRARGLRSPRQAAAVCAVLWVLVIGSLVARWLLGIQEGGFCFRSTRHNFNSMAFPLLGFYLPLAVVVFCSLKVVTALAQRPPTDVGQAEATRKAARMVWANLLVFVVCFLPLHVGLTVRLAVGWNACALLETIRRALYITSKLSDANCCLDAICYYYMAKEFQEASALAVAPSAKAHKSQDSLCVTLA

Regarding `C=Cc1nc(N2CCN(c3ccccc3OC)CC2)c2cc(OC)c(OC)cc2n1`, the EC50 – broadly, the concentration giving half of the maximal effect – in assay [1] is more than 40 µM; in assay [2], more than 80 µM.

As for `COc1cc2nc(C3CCC3)nc(N3CCN(c4ccccn4)CC3)c2cc1OC`, the concentration for a half-maximal effect (EC50) in assay [1] is more than 40 µM; in assay [2], more than 80 µM; in assay [3] it was 26 µM.

`COc1cc2nc(-c3ccccc3)nc(N3CCN(c4ccccc4)CC3)c2cc1OC`: the EC50 in assay [1] is more than 40 µM; in assay [2] it was more than 80 µM; in assay [3] it was more than 80 µM.

On to `CCOc1cc2c(N3CCN(c4ccccc4OC)CC3)nc(-c3ccccc3)nc2cc1OC`, for which the EC50 in assay [1] was more than 40 µM; in assay [2], more than 80 µM; in assay [3], more than 80 µM.

On to `CCOc1cc2c(N3CCN(c4ccccc4F)CC3)nc(-c3ccccc3)nc2cc1OC`, for which the EC50 is more than 40 µM in assay [1], more than 80 µM in assay [2] and more than 80 µM in assay [3].

As to `COc1cc2nc(C3CC3)nc(N3CCN(C(=O)c4ccccc4OC)CC3)c2cc1OC`, the EC50 was more than 40 µM in assay [1] and more than 80 µM in assay [2].

Take `COc1cc2nc(C3CC3)nc(N3CCNCC3)c2cc1OC`: the EC50 in assay [1] is more than 40 µM; in assay [2], more than 80 µM; in assay [3], more than 80 µM.

`COc1cc2nc(C(C)C)nc(N3CCN(c4ccccc4OC)CC3)c2cc1OC`: the EC50 in assay [1] was more than 40 µM; in assay [2], more than 80 µM; in assay [3], 8 µM.

As to `COc1cc2nc(-c3ccccc3)nc(N3CCN(c4ccccc4F)CC3)c2cc1OC`, the figures for the EC50 in assay [1], in assay [2] and in assay [3] were more than 40 µM, more than 80 µM and more than 80 µM, respectively.

`COc1cc2nc(C3CC3)nc(N3CCN(C(=O)c4ccccc4)CC3)c2cc1OC`: the EC50 in assay [1] was more than 40 µM; in assay [2] it was more than 80 µM.

For the compound `COc1ccccc1N1CCN(c2nc(C3CCC3)nc3ccccc23)CC1`, the figures for the EC50 in assay [1], in assay [2] and in assay [3] were more than 40 µM, more than 80 µM and 23 µM, respectively.

Turning to `COc1cc2nc(CC(C)C)nc(N3CCN(c4ccccc4OC)CC3)c2cc1OC`, the results for the EC50 in assay [1] and in assay [2] were more than 40 µM and more than 80 µM, respectively.

`COc1cc2nc(CCN(C)C)nc(N3CCN(c4ccccc4OC)CC3)c2cc1OC`: the EC50 was more than 40 µM in assay [1], more than 80 µM in assay [2] and more than 80 µM in assay [3].

Regarding `CCOc1cc2c(N3CCN(c4ccccc4[N+](=O)[O-])CC3)nc(-c3ccccc3)nc2cc1OC`, the EC50 is more than 40 µM in assay [1], more than 80 µM in assay [2] and 75 µM in assay [3].

For `COc1cc2nc(C3CCC3)nc(N3CCN(c4ccccc4)CC3)c2cc1OC`, the EC50 in assay [1] was more than 40 µM; in assay [2], more than 80 µM; in assay [3], 12 µM.

For the compound `CCOc1cc2c(N3CCN(c4ccccc4)CC3)nc(-c3ccccc3)nc2cc1OC`, the EC50 in assay [1] was more than 40 µM; in assay [2], more than 80 µM; in assay [3], more than 80 µM.

For the compound `COc1cccc(OC)c1-c1cc(C(=O)NC2(C(=O)O)C3CC4CC(C3)CC2C4)nn1-c1ccc(C(=O)N(C)CCCN(C)C)cc1C(C)C` (stereo unspecified), the IC50 – broadly, the concentration needed to halve the response being measured – in assay [4] is 0.0501 µM; in assay [5], 0.00024 µM.

`COc1ccccc1CN1CCN(c2nc(C3CC3)nc3cc(OC)c(OC)cc23)CC1`: the EC50 in assay [1] was more than 40 µM; in assay [2], more than 80 µM.

For `COc1cc2nc(Cc3ccccc3)nc(N3CCN(c4ccccc4OC)CC3)c2cc1OC`, the results for the EC50 in assay [1], in assay [2] and in assay [3] were more than 40 µM, more than 80 µM and 14 µM, respectively.

Take `CCc1nc(N2CCN(c3ccccc3OC)CC2)c2cc(OC)c(OC)cc2n1`: the EC50 in assay [1] is more than 40 µM; in assay [2] it was more than 80 µM.

`COc1cccc(OC)c1-c1cc(C(=O)N[C@@H](CC(C)C)C(=O)O)nn1-c1ccnc2cc(Cl)ccc12`: the Emax (as a rule, the size of the effect at its maximum, as opposed to the concentration needed) in assay [6] stood at 63%. For the same compound, the results for the EC50 in assay [7] and in assay [3] were more than 33 µM and 0.75 µM, respectively.

`COc1ccc2nc(C3CCC3)nc(N3CCN(c4ccccc4OC)CC3)c2c1`: the EC50 was more than 40 µM in assay [1] and more than 80 µM in assay [2].

For `COc1cc2nc(C3CC3)nc(N3CCN(Cc4ccc(C)cc4)CC3)c2cc1OC`, the EC50 is more than 40 µM in assay [1] and more than 80 µM in assay [2].

In the case of `COc1cc2nc(CCN3CCN(c4ccccc4OC)CC3)nc(N3CCN(c4ccccc4OC)CC3)c2cc1OC`, the EC50 in assay [1] was more than 40 µM; in assay [2], more than 80 µM.

For the compound `CCOc1ccccc1N1CCN(c2nc(C3CC3)nc3cc(OC)c(OC)cc23)CC1`, the figures for the EC50 in assay [1] and in assay [2] were more than 40 µM and more than 80 µM, respectively.

Consider `CCCc1nc(N2CCN(c3ccccc3OC)CC2)c2cc(OC)c(OC)cc2n1`, for which the values for the EC50 in assay [1], in assay [2] and in assay [3] were more than 40 µM, more than 80 µM and 17 µM, respectively.

With `COc1cc2nc(C3CC3)nc(N3CCN(c4ccccc4Cl)CC3)c2cc1OC`, the EC50 in assay [1] was more than 40 µM; in assay [2], more than 80 µM.

As for `COc1ccc2nc(C3CC3)nc(N3CCN(c4ccccc4OC)CC3)c2c1`, the EC50 in assay [1] was more than 40 µM; in assay [2], more than 80 µM.

As to `COc1cc2nc(-c3ccccc3)nc(N3CCN(c4ccccc4OC)CC3)c2cc1OC`, the values for the EC50 in assay [1] and in assay [2] were more than 40 µM and more than 80 µM, respectively.

For the compound `COc1cc2nc(-c3ccccc3)nc(N3CCN(c4ccc(F)cc4)CC3)c2cc1OC`, the EC50 is more than 40 µM in assay [1] and more than 80 µM in assay [2].

On to `COc1cc2nc(C3CCC3)nc(N3CCN(c4ccccc4F)CC3)c2cc1OC`, for which the EC50 in assay [1] is more than 40 µM; in assay [2] it was more than 80 µM; in assay [3], 18 µM.

For the compound `COc1cc2nc(-c3ccccc3)nc(N3CCN(c4ccccc4Cl)CC3)c2cc1OC`, the EC50 in assay [1] was more than 40 µM; in assay [2] it was more than 80 µM; in assay [3], more than 80 µM.

Consider `COc1ccc2c(N3CCN(c4ccccc4OC)CC3)nc(C3CCC3)nc2c1`, for which the EC50 in assay [1] is more than 40 µM; in assay [2], more than 80 µM.

Regarding `COc1cc2nc(C3CCC3)nc(N3CCN(c4ccccc4Cl)CC3)c2cc1OC`, the EC50 in assay [1] was more than 40 µM; in assay [2] it was more than 80 µM; in assay [3], 12 µM.

Regarding `COc1ccccc1N1CCN(c2nc(C3CCC3)nc3cc4c(cc23)OCO4)CC1`, the EC50 in assay [1] was more than 40 µM; in assay [2], more than 80 µM.

Turning to `COc1cc2nc(CC3CC3)nc(N3CCN(c4ccccc4OC)CC3)c2cc1OC`, the EC50 in assay [1] was more than 40 µM; in assay [2] it was more than 80 µM; in assay [3] it was 14 µM.

With `COc1cc2nc(C3CCC3)nc(N3CCN(c4ccccc4OC)CC3)c2cc1OC`, the EC50 in assay [1] was more than 40 µM; in assay [2], more than 80 µM.

Take `COc1cc2nc(C3CCCC3)nc(N3CCN(c4ccccc4OC)CC3)c2cc1OC`: the figures for the EC50 in assay [1] and in assay [2] were more than 40 µM and more than 80 µM, respectively.

For the compound `COc1cc2nc(C3CC3)nc(N3CCN(S(=O)(=O)c4ccccc4)CC3)c2cc1OC`, the EC50 was more than 40 µM in assay [1], more than 80 µM in assay [2] and more than 80 µM in assay [3].

For `COc1cc2ncnc(N3CCN(c4ccccc4OC)CC3)c2cc1OC`, the values for the concentration giving a half-maximal response (EC50) in assay [1], in assay [2] and in assay [3] were more than 40 µM, more than 80 µM and more than 80 µM, respectively.

Consider `COc1cc2nc(C3CCC3)nc(N3CCN(c4ccccc4C)CC3)c2cc1OC`, for which the EC50 in assay [1] was more than 40 µM; in assay [2], more than 80 µM.

Consider `COc1cc2nc(C)nc(N3CCN(c4ccccc4OC)CC3)c2cc1OC`, for which the EC50 in assay [1] is more than 40 µM; in assay [2], more than 80 µM; in assay [3], more than 80 µM.
